Source: patent publication US20240391875A1, “ISOQUINOLINONES AND QUINOLINONES AS MODULATORS OF POLRMT” (Pretzel Therapeutics, Inc., priority 2021, published 2024)

What follows are compounds tested against POLRMT (Homo sapiens, UniProt O00411) (assay: homogeneous TR-FRET assay of mitochondrial transcription (inhibition of POLRMT)). Settings: isoquinolinone compounds (Table 1).
Format: biochemical
Method in brief: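 Recombinant POLRMT (7.5 nM) with TFB2M, TFAM and linearized LSP plasmid template, 500 μM NTPs, pH 7.5 Mg buffer; 60 min at 37° C. Reaction stopped with EDTA/high-salt buffer, 407 bp RNA transcript detected by hybridized ATTO647/Europium-cryptate probe pair; TR-FRET 665/620 nm ratio taken as transcript yield.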

Chain of POLRMT (O00411 42-1230): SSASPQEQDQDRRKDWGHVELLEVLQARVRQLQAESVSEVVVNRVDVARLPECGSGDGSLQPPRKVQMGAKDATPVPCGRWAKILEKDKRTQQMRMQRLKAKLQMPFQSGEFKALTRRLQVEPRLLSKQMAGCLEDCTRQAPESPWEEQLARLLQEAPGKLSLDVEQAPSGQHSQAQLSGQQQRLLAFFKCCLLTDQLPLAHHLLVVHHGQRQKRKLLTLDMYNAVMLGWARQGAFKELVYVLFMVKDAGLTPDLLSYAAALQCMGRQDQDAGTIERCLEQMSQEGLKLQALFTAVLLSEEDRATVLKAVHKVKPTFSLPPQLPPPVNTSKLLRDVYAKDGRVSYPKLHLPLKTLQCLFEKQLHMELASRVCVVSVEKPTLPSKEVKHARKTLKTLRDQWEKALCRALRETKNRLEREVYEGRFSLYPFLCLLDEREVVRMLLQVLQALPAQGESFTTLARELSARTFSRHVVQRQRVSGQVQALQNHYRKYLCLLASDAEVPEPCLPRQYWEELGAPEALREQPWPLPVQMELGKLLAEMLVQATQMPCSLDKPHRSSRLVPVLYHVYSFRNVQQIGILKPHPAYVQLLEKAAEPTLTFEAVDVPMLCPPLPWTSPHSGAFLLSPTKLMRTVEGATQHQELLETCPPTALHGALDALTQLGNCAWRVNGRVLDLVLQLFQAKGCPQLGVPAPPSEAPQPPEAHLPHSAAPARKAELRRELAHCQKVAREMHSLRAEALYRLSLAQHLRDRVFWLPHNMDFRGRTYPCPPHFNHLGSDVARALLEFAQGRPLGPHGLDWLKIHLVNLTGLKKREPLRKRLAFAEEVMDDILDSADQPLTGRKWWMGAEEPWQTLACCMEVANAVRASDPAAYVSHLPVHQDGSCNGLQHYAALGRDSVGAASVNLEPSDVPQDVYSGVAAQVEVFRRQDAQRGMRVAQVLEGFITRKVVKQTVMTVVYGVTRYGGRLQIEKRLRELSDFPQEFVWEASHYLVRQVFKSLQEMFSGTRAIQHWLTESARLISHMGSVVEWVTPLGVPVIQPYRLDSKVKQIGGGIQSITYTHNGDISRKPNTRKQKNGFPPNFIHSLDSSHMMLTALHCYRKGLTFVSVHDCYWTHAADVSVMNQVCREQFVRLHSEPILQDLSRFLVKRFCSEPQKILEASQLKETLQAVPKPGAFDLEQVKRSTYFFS

SMILES	IC50 [nM]
Cc1ccccc1-c1c[nH]c(=O)c2cc(OCCN(C)C)ccc12 [Example 10, 7-(2-(dimethylamino)ethoxy)-4-(o-tolyl)isoquinolin-1(2H)-one]	> 100000
Cc1cc(F)cc(C)c1-c1c[nH]c(=O)c2cc(OCC(N)=O)ccc12 [Example 109, 2-((4-(4-fluoro-2,6-dimethylphenyl)-1-oxo-1,2-dihydroisoquinolin-7-yl)oxy)acetamide]	7000
Cc1ccccc1-c1c[nH]c(=O)c2cc(NCC(N)=O)ccc12 [Example 70, 2-((1-oxo-4-(o-tolyl)-1,2-dihydroisoquinolin-7-yl)amino)acetamide]	8000
CNC(=O)[C@H](C)Oc1ccc2c(-c3ccccc3C)c[nH]c(=O)c2c1 [Example 28, (S)—N-methyl-2-((1-oxo-4-(o-tolyl)-1,2-dihydroisoquinolin-7-yl)oxy)propenamide]	36000
CC(C)Oc1ccc2c(-c3ccccc3C#N)c[nH]c(=O)c2c1 [Example 34, 2-(7-isopropoxy-1-oxo-1,2-dihydroisoquinolin-4-yl)benzonitrile]	14000
COCC(Oc1ccc2c(-c3ccccc3C)c[nH]c(=O)c2c1)C(N)=O (single isomer, unassigned) [Example 53]	13000
Cc1ccccc1-c1c[nH]c(=O)c2cc(OCC(N)=O)ccc12 [Example 63, 2-((1-oxo-4-(o-tolyl)-1,2-dihydroisoquinolin-7-yl)oxy)acetamide]	3000
COCC(C#N)Oc1ccc2c(-c3ccccc3C)c[nH]c(=O)c2c1 (single isomer, unassigned) [Example 75, 3-methoxy-2-((1-oxo-4-(o-tolyl)-1,2-dihydroisoquinolin-7-yl)oxy)propanenitrile]	4000
Cc1ccccc1-c1c[nH]c(=O)c2cc(CO)ccc12 [Example 15, 7-(hydroxymethyl)-4-(o-tolyl)isoquinolin-1(2H)-one]	51000
COCCOc1ccc2c(-c3ccccc3C)c[nH]c(=O)c2c1 [Example 9, 7-(2-methoxyethoxy)-4-(o-tolyl)isoquinolin-1(2H)-one]	3000
Cc1ccccc1-c1c[nH]c(=O)c2cc(NC(=O)C3CCN(C)CC3)ccc12 [Example 43, 1-methyl-N-(1-oxo-4-(o-tolyl)-1,2-dihydroisoquinolin-7-yl)piperidine-4-carboxamide]	> 100000
COCC(Oc1ccc2c(-c3ccccc3C)c[nH]c(=O)c2c1)C(=O)N(C)C (single isomer, unassigned) [Example 54]	> 100000
C[C@@H](Oc1ccc2c(-c3ccc(F)cc3Cl)c[nH]c(=O)c2c1)C(=O)N1CCN(S(C)(=O)=O)CC1 [Example 130, (R)-4-(2-chloro-4-fluorophenyl)-7-((1-(4-(methylsulfonyl)piperazin-1-yl)-1-oxopropan-2-yl)oxy)isoquinolin-1(2H)-one]	2000
Cc1ccccc1-c1c[nH]c(=O)c2cc(C(=O)N(C)C)ccc12 [Example 23, N,N-dimethyl-1-oxo-4-(o-tolyl)-1,2-dihydroisoquinoline-7-carboxamide]	75000
C[C@H](Oc1ccc2c(-c3ccc(F)cc3Cl)c[nH]c(=O)c2c1)C(=O)N1CCC(C(=O)O)CC1 [Example 60, (S)-1-(2-((4-(2-chloro-4-fluorophenyl)-1-oxo-1,2-dihydroisoquinolin-7-yl)oxy)propanoyl)piperidine-4-carboxylic acid]	39000
CC(C#N)Oc1ccc2c(-c3ccc(F)cc3Cl)c[nH]c(=O)c2c1 (single isomer, unassigned) [Example 49, 2-((4-(2-chloro-4-fluorophenyl)-1-oxo-1,2-dihydroisoquinolin-7-yl)oxy)propanenitrile]	5000

Continued, values first:

IC50 [nM]	SMILES
400	C[C@@H](Oc1ccc2c(-c3ccc(F)cc3Cl)c[nH]c(=O)c2c1)C(=O)N1CCN(CC(F)(F)F)CC1 [Example 118, (R)-4-(2-chloro-4-fluorophenyl)-7-((1-oxo-1-(4-(2,2,2-trifluoroethyl)piperazin-1-yl)propan-2-yl)oxy)isoquinolin-1(2H)-one]
200	Cc1ccccc1-c1c[nH]c(=O)c2cc(OC(C)C#N)ccc12 (single isomer, unassigned) [Example 12, 2-((1-oxo-4-(o-tolyl)-1,2-dihydroisoquinolin-7-yl)oxy)propanenitrile]
20	Cc1cccc(C)c1-c1c[nH]c(=O)c2cc(OCC#N)ccc12 [Example 99, 2-((4-(2,6-dimethylphenyl)-1-oxo-1,2-dihydroisoquinolin-7-yl)oxy)acetonitrile]
2000	COCc1ccc2c(-c3ccccc3C)c[nH]c(=O)c2c1 [Example 44, 7-(methoxymethyl)-4-(o-tolyl)isoquinolin-1(2H)-one]
1000	C[C@@H](Oc1ccc2c(-c3ccc(F)cc3Cl)c[nH]c(=O)c2c1)C(=O)N1CCO[C@@H](C(N)=O)C1 [Example 129, (R)-4-((R)-2-((4-(2-chloro-4-fluorophenyl)-1-oxo-1,2-dihydroisoquinolin-7-yl)oxy)propanoyl)morpholine-2-carboxamide]
300	Cc1ccccc1-c1c[nH]c(=O)c2cc(O[C@H](C)C(=O)N3CCCC(S(C)(=O)=O)C3)ccc12 (single isomer, unassigned) [Example 98]
500	CC(=O)N1CCN(C(=O)[C@@H](C)Oc2ccc3c(-c4ccc(F)cc4Cl)c[nH]c(=O)c3c2)CC1 [Example 116, (R)-7-((1-(4-acetylpiperazin-1-yl)-1-oxopropan-2-yl)oxy)-4-(2-chloro-4-fluorophenyl)isoquinolin-1(2H)-one]
200	C[C@H]1CN(C(=O)[C@@H](C)Oc2ccc3c(-c4ccc(F)cc4Cl)c[nH]c(=O)c3c2)C[C@H](C)O1 (single isomer, unassigned) [Example 125]
200	C[C@@H](Oc1ccc2c(-c3ccc(F)cc3Cl)c[nH]c(=O)c2c1)C(=O)N1CCO[C@H](C(=O)O)C1 [Example 121, (S)-4-((R)-2-((4-(2-chloro-4-fluorophenyl)-1-oxo-1,2-dihydroisoquinolin-7-yl)oxy)propanoyl)morpholine-2-carboxylic acid]
2000	C[C@@H](Oc1ccc2c(-c3ccc(F)cc3Cl)c[nH]c(=O)c2c1)C(=O)N1CCS(=N)(=O)CC1 [Example 139, (R)-4-(2-chloro-4-fluorophenyl)-7-((1-(1-imino-1-oxido-1λ^6-thiomorpholino)-1-oxopropan-2-yl)oxy)isoquinolin-1(2H)-one]
400	C[C@@H](Oc1ccc2c(-c3ccc(F)cc3Cl)c[nH]c(=O)c2c1)C(=O)N1CCOC[C@@H]1C(=O)O [Example 115, (R)-4-((R)-2-((4-(2-chloro-4-fluorophenyl)-1-oxo-1,2-dihydroisoquinolin-7-yl)oxy)propanoyl)morpholine-3-carboxylic acid]
2000	C[C@@H](Oc1ccc2c(-c3ccc(F)cc3Cl)c[nH]c(=O)c2c1)C(=O)N1CC2CC1CN2C (stereo partly drawn) [Example 127, 4-(2-chloro-4-fluorophenyl)-7-(((2R)-1-(5-methyl-2,5-diazabicyclo[2.2.1]heptan-2-yl)-1-oxopropan-2-yl)oxy)isoquinolin-1(2H)-one]
200	C[C@@H](Oc1ccc2c(-c3ccc(F)cc3Cl)c[nH]c(=O)c2c1)C(=O)N1CC2CCC(C1)O2 [Example 105, 7-(((2R)-1-(8-oxa-3-azabicyclo[3.2.1]octan-3-yl)-1-oxopropan-2-yl)oxy)-4-(2-chloro-4-fluorophenyl)isoquinolin-1(2H)-one]
90	Cc1cccc(C)c1-c1c[nH]c(=O)c2cc(O[C@H](C)C(=O)O)ccc12 [Example 111, (R)-2-((4-(2,6-dimethylphenyl)-1-oxo-1,2-dihydroisoquinolin-7-yl)oxy)propanoic acid]
2000	Cc1ccccc1-c1c[nH]c(=O)c2cc(NC(=O)C(C)C)ccc12 [Example 30, N-(1-oxo-4-(o-tolyl)-1,2-dihydroisoquinolin-7-yl)isobutyramide]
20	Cc1ccccc1-c1c[nH]c(=O)c2cc(O[C@H](C)C(=O)N3C4CCC3COC4)ccc12 [Example 85, 7-(((2R)-1-(3-oxa-8-azabicyclo[3.2.1]octan-8-yl)-1-oxopropan-2-yl)oxy)-4-(o-tolyl)isoquinolin-1(2H)-one]
80	C[C@@H](Oc1ccc2c(-c3ccc(F)cc3Cl)c[nH]c(=O)c2c1)C(=O)N1CCCC(F)(F)C1 [Example 84, (R)-4-(2-chloro-4-fluorophenyl)-7-((1-(3,3-difluoropiperidin-1-yl)-1-oxopropan-2-yl)oxy)isoquinolin-1(2H)-one]
1000	Cc1ccccc1-c1c[nH]c(=O)c2cc(OC(C)C(N)=O)ccc12 (stereo not shown) [Example 71, 2-((1-oxo-4-(o-tolyl)-1,2-dihydroisoquinolin-7-yl)oxy)propanamide]
1000	C[C@@H](Oc1ccc2c(-c3ccc(F)cc3Cl)c[nH]c(=O)c2c1)C(=O)N1CCCC(S(C)(=O)=O)C1 (single isomer, unassigned) [Example 95]
500	CCC(=O)N1CCN(C(=O)[C@@H](C)Oc2ccc3c(-c4ccc(F)cc4Cl)c[nH]c(=O)c3c2)CC1 [Example 117, (R)-4-(2-chloro-4-fluorophenyl)-7-((1-oxo-1-(4-propionylpiperazin-1-yl)propan-2-yl)oxy)isoquinolin-1(2H)-one]
400	Cc1ccccc1-c1c[nH]c(=O)c2cc(O[C@H](C)C(=O)O)ccc12 [Example 88, (R)-2-((1-oxo-4-(o-tolyl)-1,2-dihydroisoquinolin-7-yl)oxy)propanoic acid]
600	C[C@@H](Oc1ccc2c(-c3ccc(F)cc3Cl)c[nH]c(=O)c2c1)C(=O)N1CCO[C@H](CO)C1 [Example 106, 4-(2-chloro-4-fluorophenyl)-7-(((R)-1-((S)-2-(hydroxymethyl)morpholino)-1-oxopropan-2-yl)oxy)isoquinolin-1(2H)-one]

Same assay, conditions: quinolinone compounds (Table 2)

IC50 [nM]	SMILES
> 100000	Cc1ccccc1-c1cc(=O)[nH]c2cc(O[C@@H](C)C(=O)N(C)C)ccc12 (single isomer, unassigned) [Example Q8]
> 100000	COc1ccc2c(-c3ccccc3)cc(=O)[nH]c2c1 [Example Q9, 7-methoxy-4-phenylquinolin-2(1H)-one]
